# Data taken from patent US12275719B2, “Small molecule inhibitors of galectin-3” (BRISTOL-MYERS SQUIBB COMPANY, priority 2019, dated 2025).
# Target: His-tagged recombinant human Gal-3 (hGal-3) (Homo sapiens, UniProt P17931)
# Test: Gal-3 HTRF assay (hGal-3 / B-ASF binding inhibition)
# Conditions: Examples 26 to 29 and 66 to 68; HTRF, 15 nM hGal-3, 15 nM B-ASF
# Procedure: ASSAY BUFFER Composition: 25 mM HEPES, 100 mM NaCl, 0.005% Tween 20, 0.05% BSA prepared in sterile water (all reagents from Sigma).
# Positive Control: 100% DMSO (1 μL)+His-tagged hGal-3 (20 μL)+β-ASF (20 μL)+Anti-His Terbium Antibody (5 μL)+Strep d2 Antibody (5 μL).
# Negative Control: 100% DMSO (1 μL)+His-tagged hGal-3 (20 μL)+Anti His Terbium Antibody (5 μL)+Strep d2 Aantibody (5 μL).
# PROTOCOL: The Gal-3 assays were performed in 384 white Opti plates in three replicates at room temperature with gentle shaking at 250-300 rpm From the original stocks, […] working stock concentrations of His-tagged recombinant human Gal-3 (hGal-3) and that of B-ASF were prepared. From the working stock, 20 μL of hGal-3 (15 nM) and 20 μL B-ASF (15 nM) were added to the plates. In Negative Control, only hGal-3 was added. A concentration range of 50× working stocks were prepared for the compounds in 100% DMSO. Aliquots of 1 μL of the compounds were added to the wells and pre-incubated with 20 μL hGal-3 per well for 30 minutes Then 20 μL B-ASF were added and incubated for another 1 hour. To detect the signal, 5 μL (final conc. of 1.0 nM) terbium labelled Anti-His antibody was added and incubated for 30 min followed by adding 5 μL (final conc. of 20 nM) Streptavidin d2 and incubation for another 1 hour. The assay signal was detected using HTRF screen protocol (Excitation wavelength=340 nm, emission wavelength=615 nm/665 nm) on Envision 2104 Multilabel Reader. Data analysed using Toolset and Curve Master. Results are reported in the experimental section (IC50 in μM).
# Sequence of His-tagged recombinant human Gal-3 (hGal-3) (P17931 whole entry): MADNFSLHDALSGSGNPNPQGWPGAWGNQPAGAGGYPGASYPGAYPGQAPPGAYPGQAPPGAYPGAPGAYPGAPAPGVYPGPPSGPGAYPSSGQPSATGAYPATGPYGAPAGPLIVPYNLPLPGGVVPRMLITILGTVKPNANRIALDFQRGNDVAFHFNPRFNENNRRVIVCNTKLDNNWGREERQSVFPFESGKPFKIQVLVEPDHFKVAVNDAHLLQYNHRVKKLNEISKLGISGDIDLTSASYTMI
row,IC50 [nM],SMILES
1,9.3,"Cn1nc([C@@H]2O[C@H](CO)[C@H](O)[C@H](n3cc(-c4ccc(Br)c(F)c4F)nn3)[C@H]2O)n(-c2cc(Cl)ccc2C(F)(F)F)c1=S [Example 67, 5-((2S,3R,4R,5R,6R)-4-(4-(4-bromo-2,3-difluorophenyl)-1H-1,2,3-triazol-1-yl)-3,5-dihydroxy-6-(hydroxymethyl)tetrahydro-2H-pyran-2-yl)-4-(5-chloro-2-(trifluoromethyl)phenyl)-2-methyl-2,4-dihydro-3H-1,2,4-triazole-3-thione]"

# Same assay, conditions: table of Examples 5 to 25
row,IC50 [nM],SMILES
1,137,COc1c(Cl)ccc(-c2cn([C@H]3[C@@H](O)[C@@H](CO)O[C@@H](c4nc(C)nn4-c4cc(Cl)ccc4C(F)(F)F)[C@@H]3O)nn2)c1F [Example 14]
2,56,Cc1nc([C@@H]2O[C@H](CO)[C@H](O)[C@H](n3cc(-c4ccc(Br)cc4F)nn3)[C@H]2O)n(-c2cc(Cl)ccc2C(F)(F)F)n1 [Example 12]
3,55,Cc1nc([C@@H]2O[C@H](CO)[C@H](O)[C@H](n3cc(-c4ccc(Cl)c(F)c4F)nn3)[C@H]2O)n(-c2cc(Cl)cnc2C(F)(F)F)n1 [Example 22]
4,6,Cc1nc([C@@H]2O[C@H](CO)[C@H](O)[C@H](n3cc(-c4ccc(Cl)c(Cl)c4F)nn3)[C@H]2O)n(-c2cc(Cl)ccc2C(F)(F)F)n1 [Example 7]
5,62,Cc1nc([C@@H]2O[C@H](CO)[C@H](O)[C@H](n3cc(-c4ccc5ccccc5c4F)nn3)[C@H]2O)n(-c2cc(Cl)ccc2C(F)(F)F)n1 [Example 6]

# Same assay, conditions: table of Examples 30 to 65
row,IC50 [nM],SMILES
1,24,CO[C@@H]1[C@@H](n2cc(-c3cc(F)c(Br)c(F)c3)nn2)[C@@H](O)[C@@H](CO)O[C@H]1c1ncnn1-c1cc(Cl)ccc1C(F)(F)F [Example 31]
2,78,OC[C@H]1O[C@@H](c2nncn2-c2cc(Cl)ccc2C(F)(F)F)[C@H](OCC(F)(F)F)[C@@H](n2cc(-c3ccc(Br)c(F)c3)nn2)[C@H]1O [Example 63]
3,21,OC[C@H]1O[C@@H](c2nncn2-c2cc(Cl)ccc2OC(F)(F)F)[C@H](OCC(F)F)[C@@H](n2cc(-c3ccc(Br)c(F)c3F)nn2)[C@H]1O [Example 57]
4,5.7,OC[C@H]1O[C@@H](c2nncn2-c2cc(Cl)ccc2C(F)(F)F)[C@H](O)[C@@H](n2cc(-c3c(F)c(F)c(Br)c(F)c3F)nn2)[C@H]1O [Example 37]
5,14,CO[C@@H]1[C@@H](n2cc(-c3ccc(Br)c(F)c3F)nn2)[C@@H](O)[C@@H](CO)O[C@H]1c1nncn1-c1cc(Cl)ccc1OC(F)(F)F [Example 48]
6,14,OC[C@H]1O[C@@H](c2nncn2-c2cc(Cl)ccc2C(F)(F)F)[C@H](OCC(F)(F)F)[C@@H](n2cc(-c3ccc(Br)c(F)c3F)nn2)[C@H]1O [Example 58]

# Same assay, conditions: table of Examples 69 to 75
row,IC50 [nM],SMILES
1,16,Cc1nc2ccc(-n3cnnc3[C@@H]3O[C@H](CO)[C@H](O)[C@H](n4cc(-c5cc(F)c(Cl)c(F)c5)nn4)[C@H]3OCC(=O)O)cc2s1 [Example 72]

# Same assay, conditions: text of Examples 1 to 4; HTRF, 15 nM hGal-3, 15 nM B-ASF
row,IC50 [nM],SMILES
1,14,"COc1cc(-c2cn([C@H]3[C@@H](O)[C@@H](CO)O[C@@H](c4nc(C)nn4-c4cc(Cl)ccc4C(F)(F)F)[C@@H]3O)nn2)cc(F)c1Cl [Example 3, (2S,3R,4R,5R,6R)-2-(1-(5-Chloro-2-(trifluoromethyl)phenyl)-3-methyl-1H-1,2,4-triazol-5-yl)-4-(4-(4-chloro-3-fluoro-5-methoxyphenyl)-1H-1,2,3-triazol-1-yl)-6-(hydroxymethyl)tetrahydro-2H-pyran-3,5-diol]"
2,7,"Cc1nc([C@@H]2O[C@H](CO)[C@H](O)[C@H](n3cc(-c4ccc(Br)c(F)c4F)nn3)[C@H]2O)n(-c2ccc3ncsc3c2)n1 [Example 1, (2S,3R,4R,5R,6R)-2-(1-(Benzo[d]thiazol-6-yl)-3-methyl-1H-1,2,4-triazol-5-yl)-4-(4-(4-bromo-2,3-difluorophenyl)-1H-1,2,3-triazol-1-yl)-6-(hydroxymethyl)tetrahydro-2H-pyran-3,5-diol]"
